# Laboratory results reported in BindingDB's records for doi:10.7270/Q2W66J6B (Sanford-Burnham Center For Chemical Genomics, 2009).
# Molecular target: T1, Dual specificity protein phosphatase 6 (Rattus norvegicus, UniProt Q64346)
# T1 sequence (Q64346 whole entry): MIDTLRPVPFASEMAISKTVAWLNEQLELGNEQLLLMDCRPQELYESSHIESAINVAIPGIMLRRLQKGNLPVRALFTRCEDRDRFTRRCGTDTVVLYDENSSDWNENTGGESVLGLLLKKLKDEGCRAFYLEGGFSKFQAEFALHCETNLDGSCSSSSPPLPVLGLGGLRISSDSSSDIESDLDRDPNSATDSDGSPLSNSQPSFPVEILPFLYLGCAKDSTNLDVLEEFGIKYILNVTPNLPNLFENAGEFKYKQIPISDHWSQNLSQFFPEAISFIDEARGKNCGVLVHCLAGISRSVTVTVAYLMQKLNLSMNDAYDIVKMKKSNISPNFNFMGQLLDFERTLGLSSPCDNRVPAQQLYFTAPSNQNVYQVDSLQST
# Experiment: inhibition of rat DUSP6 enzyme activity – biochemical, in vitro, primary screen (AID 425)
row,IC50 [µM],SMILES
1,24,Cc1cc(=O)oc2cc(OCC(=O)N/N=C/C3C=C([N+](=O)[O-])C=CC3=O)ccc12 (stereo unspecified) [MLS000588734]
2,116,COC1=CC=CC(/C=N/NC(=O)c2cc3cc([N+](=O)[O-])ccc3s2)C1=O (stereo unspecified) [SMR000237814]

# More lines, now with the values behind:
row,SMILES,IC50 [µM]
1,"CCOc1cc(CN=Nc2nc(O)c(CC(=O)O)s2)ccc1OCc1ccc(Cl)cc1Cl [2-[2-[(N''E)-N''-[4-(2,4-dichlorobenzyl)oxy-3-ethoxy-benzylidene]hydrazino]-4-keto-2-thiazolin-5-yl]acetic acid]",25.6
2,O=NCc1cccn1-c1cccc(C(=O)O)c1 [3-[2-(hydroximinomethyl)pyrrol-1-yl]benzoic acid],10
3,Cc1ccc(NC(=O)CN2C(=O)C(=NNC(=O)c3cc([N+](=O)[O-])ccc3O)c3ccccc32)cc1,31
4,"CCN(CC)CCCN1C(=O)C(=O)C(C(=O)c2ccccc2)C1c1ccccn1 (stereo unspecified) [(4E)-1-[3-(diethylamino)propyl]-4-[hydroxy(phenyl)methylidene]-5-(2-pyridinyl)pyrrolidine-2,3-dione]",100
